Results from patent US20170313674A1, “BENZYLHYDROXIDE DERIVATIVES, PREPARATION THEREOF AND THERAPEUTIC USE THEREOF” (SANOFI, priority 2014, published 2017).
Read-outs that look alike come from different tables or passages of the source.

Legend:
[1] = tested on: mitochondrial ATP production on non-small cell lung carcinoma cell lines NCI-H460; test: Mitochondrial ATP analysis (Cell Titer Glo) in NCI-H460 cells; format: cell-based; conditions: 1-hour incubation, with sodium iodoacetate (100 μM), concentration inhibiting 50% of mitochondrial ATP production, read-out: IC50 (mito ATP)
Method: In order to evaluate the inhibitory activity of the all compounds, an in vitro assay was developed which read out is directly linked to mitochondrial complex 1 inhibition. Since mitochondrial complex 1 contributes to the formation of membrane potential coupled to the mitochondrial ATP synthesis, complex 1 inhibition directly leads in cells to the inhibition of mitochondrial ATP production. Cellular ATP contents were measured in presence of either glycolysis inhibitor (sodium iodocetate) and/or mitochondrial inhibitors (F0F1-ATPase inhibitor: oligomycin or mitochondrial uncoupler: FCCP) to determine the ATP production part relying either on glycolytic or on mitochondrial metabolism.
Mitochondrial ATP Analysis
The compounds of the invention were evaluated for their ability to inhibit mitochondrial
ATP was measured using the Promega Cell Titer Glo kit and protocol. In summary, 1,000 cells were plated in 40 μL in a 384 well plate. 24 hours later, medium was replaced by 20 μl culture medium in presence of compounds: cells were treated in replicates of five with control (PBS), oligomycin A (10 μg/ml), FCCP (30 μM), or the compounds of the invention in dose effect both alone or in combination with sodium iodoacetate (100 μM). Following a 1-hour incubation, 20 μL of CellTtiter-glo™ reaction mix were added to each well for a final volume of 40 μL. Plates were then analyzed for luminescence with a Perkin Elmer EnVision. By comparing the different conditions, global ATP and percentages of both glycolytic and mitochondrial ATP were determined.
The mitochondrial ATP production was calculated as the remaining ATP under iodoacetate treatment minus basal ATP (ATP content under iodoacetate and oligomycin treatment). Inhibitory activity of the compounds on mitochondrial ATP in NCI-H460 cells is expressed as the concentration needed to inhibit 50% of mitochondrial ATP production (IC50, M).

[2] = tested on: HIF-1a; test: Western blot model: HIF1-a stabilization in Hep3b cells under hypoxia; format: cell-based; conditions: hypoxia 1% O2, 6 hours; for Western Blot (range of decrease of HIF1-a stabilization): class symbol
Method: Since it was sought to determine the efficacy of the compounds to inhibit HIF1a stabilization under hypoxia, the compounds according to the invention underwent biochemical studies in order to determine their capacity to decrease HIF stabilization in Hep3b cells under hypoxia (western blot model).
Hep3B cells are seeded at a rate of 300000 cells per well in 6-wells culture plate in 2 ml of MEM supplemented with glutamin (2 mM) and 10% FCS (foetal calf serum) and incubated at 37° C. in the presence of 5% CO2. The next day, the cells are placed in contact with the compound and an incubation under hypoxia at 1% O2 is carried out at 37° C. in 95% humidity and 5% CO2 in a sealed anaerobic workstation (Hypoxystation H35-Don Whitley—AES Chemunex) during 6 hours.
Cells were washed (PBS) and lysed in SDS sample buffer. Proteins (25 μg) were separated on 4-12% Bis-Tris gels and transferred onto polyvinylidene difluoride membranes (Millipore). Membranes were blotted with a mouse monoclonal antibody to HIF-1a (BD transduction) and a mouse monoclonal anti-βactin (Sigma). Immunoreactive bands were detected with a horse radish peroxydase (HRP) anti-mouse antibody (Sigma) by enhanced chemiluminescence (Promega).
The inhibitory activity of the compounds for their capacity to decrease HIF1-a stabilization in Hep3b under hypoxia is expressed as range of percentage relative to control with: […]

SMILES | IC50 ([1]; Homo sapiens, NCI-H460, 1 h) [nM] | IC50 [1] [nM] | Western Blot (decrease of HIF1-a stabilization, percentage relative to control) [2] [%] | Western Blot (range of decrease of HIF1-a stabilization) [2]
COc1ccc(C(O)C(C)(C)Oc2ccc(-c3nc(-c4ccc(OC(C)(C)C(O)c5ccc(OC)c(OC)c5)cc4)c(C)o3)cc2)cc1OC (single isomer, unassigned) [Compound I-4, 1-(3,4-dimethoxyphenyl)-2-[4-[2-[4-[2-(3,4-dimethoxyphenyl)-2-hydroxy-1,1-dimethyl-ethoxy]phenyl]-5-methyl-oxazol-4-yl]phenoxy]-2-methyl-propan-1-ol] | – | 12 | 72 | *** (*** represents a decrease of HIF-a stabilization higher than 70%)
COc1ccc(C(O)C(C)(C)Oc2ccc(-c3nc(-c4ccc(OC(C)(C)C(O)c5ccc(OC)c(OC)c5)cc4)c(C)s3)cc2)cc1OC (single isomer, unassigned) [Compound I-8, 1-(3,4-dimethoxyphenyl)-2-[4-[2-[4-[2-(3,4-dimethoxyphenyl)-2-hydroxy-1,1-dimethyl-ethoxy]phenyl]-5-methyl-thiazol-4-yl]phenoxy]-2-methyl-propan-1-ol] | – | 2.06 | 47 | * (* represents a decrease of HIF-a stabilization between 30 to 50%)
COc1ccc(C(O)C(C)(C)Oc2ccc(-c3nc(-c4ccc(OC(C)(C)C(O)c5ccc(OC)c(OC)c5)cc4)c(C)s3)cc2)cc1OC (single isomer, unassigned) [Compound I-9, 1-(3,4-dimethoxyphenyl)-2-[4-[2-[4-[2-(3,4-dimethoxyphenyl)-2-hydroxy-1,1-dimethyl-ethoxy]phenyl]-5-methyl-thiazol-4-yl]phenoxy]-2-methyl-propan-1-ol] | 3.86 | – | 58.5 | ** (** represents a decrease of HIF-a stabilization between 50 to 70%)
COc1ccc(C(O)COc2ccc(-c3nc(-c4ccc(OCC(O)c5ccc(OC)c(OC)c5)cc4)c(C)s3)cc2)cc1OC (single isomer, unassigned) [Compound I-10, 1-(3,4-dimethoxyphenyl)-2-[4-[2-[4-[2-(3,4-dimethoxyphenyl)-2-hydroxy-ethoxy]phenyl]-5-methyl-thiazol-4-yl]phenoxy]ethanol] | – | 146 | 62 | ** (** represents a decrease of HIF-a stabilization between 50 to 70%)
COc1ccc(C(O)COc2ccc(-c3nc(-c4ccc(OCC(O)c5ccc(OC)c(OC)c5)cc4)c(C)s3)cc2)cc1OC (single isomer, unassigned) [Compound I-11, 1-(3,4-dimethoxyphenyl)-2-[4-[2-[4-[2-(3,4-dimethoxyphenyl)-2-hydroxy-ethoxy]phenyl]-5-methyl-thiazol-4-yl]phenoxy]ethanol] | – | 557 | 65 | ** (** represents a decrease of HIF-a stabilization between 50 to 70%)
COc1ccc(C(O)COc2ccc(-c3coc(-c4ccc(OCC(O)c5ccc(OC)c(OC)c5)cc4)n3)cc2)cc1OC (single isomer, unassigned) [Compound I-13, 1-(3,4-dimethoxyphenyl)-2-[4-[2-[4-[2-(3,4-dimethoxyphenyl)-2-hydroxy-ethoxy]phenyl]oxazol-4-yl]phenoxy]ethanol] | – | 69 | 51 | ** (** represents a decrease of HIF-a stabilization between 50 to 70%)
COc1ccc(C(O)COc2ccc(-c3coc(-c4ccc(OCC(O)c5ccc(OC)c(OC)c5)cc4)n3)cc2)cc1OC (single isomer, unassigned) [Compound I-14, 1-(3,4-dimethoxyphenyl)-2-[4-[2-[4-[2-(3,4-dimethoxyphenyl)-2-hydroxy-ethoxy]phenyl]oxazol-4-yl]phenoxy]ethanol] | – | 679 | 59 | ** (** represents a decrease of HIF-a stabilization between 50 to 70%)
COc1cc(C(O)COc2ccc(-c3coc(-c4ccc(OCC(O)c5cc(OC)c(OC)c(OC)c5)cc4)n3)cc2)cc(OC)c1OC (single isomer, unassigned) [Compound I-21, 2-[4-[2-[4-[2-hydroxy-2-(3,4,5-trimethoxyphenyl)ethoxy]phenyl]oxazol-4-yl]phenoxy]-1-(3,4,5-trimethoxyphenyl)ethanol] | – | 2650 | 52 | ** (** represents a decrease of HIF-a stabilization between 50 to 70%)
COc1cc(C(O)COc2ccc(-c3coc(-c4ccc(OCC(O)c5cc(OC)c(OC)c(OC)c5)cc4)n3)cc2)cc(OC)c1OC (single isomer, unassigned) [Compound I-22, 2-[4-[2-[4-[2-hydroxy-2-(3,4,5-trimethoxyphenyl)ethoxy]phenyl]oxazol-4-yl]phenoxy]-1-(3,4,5-trimethoxyphenyl)ethanol] | – | 1280 | 57 | ** (** represents a decrease of HIF-a stabilization between 50 to 70%)

Second part, led by results:

IC50 ([1]; Homo sapiens, NCI-H460, 1 h) [nM] | IC50 [1] [nM] | SMILES | Western Blot (decrease of HIF1-a stabilization, percentage relative to control) [2] [%] | Western Blot (range of decrease of HIF1-a stabilization) [2]
8.85 | – | COc1ccc(C(O)C(C)(C)Oc2ccc(-c3nc(-c4ccc(OC(C)(C)C(O)c5ccc(OC)c(OC)c5)cc4)c(C)o3)cc2)cc1OC (single isomer, unassigned) [Compound I-3, 1-(3,4-dimethoxyphenyl)-2-[4-[2-[4-[2-(3,4-dimethoxyphenyl)-2-hydroxy-1,1-dimethyl-ethoxy]phenyl]-5-methyl-oxazol-4-yl]phenoxy]-2-methyl-propan-1-ol] | 70 | *** (*** represents a decrease of HIF-a stabilization higher than 70%)
– | 62.8 | COc1ccc(C(O)C(C)(C)Oc2ccc(-c3coc(-c4ccc(OC(C)(C)C(O)c5ccc(OC)c(OC)c5)cc4)n3)cc2)cc1OC (single isomer, unassigned) [Compound I-18, 1-(3,4-dimethoxyphenyl)-2-[4-[2-[4-[2-(3,4-dimethoxyphenyl)-2-hydroxy-1,1-dimethyl-ethoxy]phenyl]oxazol-4-yl]phenoxy]-2-methyl-propan-1-ol] | 71 | *** (*** represents a decrease of HIF-a stabilization higher than 70%)
– | 245 | COc1ccc(C(O)C(C)(C)Oc2ccc(-c3coc(-c4ccc(OC(C)(C)C(O)c5ccc(OC)c(OC)c5)cc4)n3)cc2)cc1OC (single isomer, unassigned) [Compound I-19, 1-(3,4-dimethoxyphenyl)-2-[4-[2-[4-[2-(3,4-dimethoxyphenyl)-2-hydroxy-1,1-dimethyl-ethoxy]phenyl]oxazol-4-yl]phenoxy]-2-methyl-propan-1-ol] | 56 | ** (** represents a decrease of HIF-a stabilization between 50 to 70%)
– | 254 | COc1ccc(C(O)COc2ccc(-c3csc(-c4ccc(OCC(O)c5ccc(OC)c(OC)c5)cc4)n3)cc2)cc1OC (single isomer, unassigned) [Compound I-24, 1-(3,4-dimethoxyphenyl)-2-[4-[2-[4-[2-(3,4-dimethoxyphenyl)-2-hydroxy-ethoxy]phenyl]thiazol-4-yl]phenoxy]ethanol] | 49 | * (* represents a decrease of HIF-a stabilization between 30 to 50%)
